Results published in US20050192182A1, “Herbicidal mixtures based on substituted aryl ketones” (priority 2001, published 2005).

Key:
ELTTP = experiment: Test in transplanted paddy rice (greenhouse), water-surface application; format: in vivo, Elatine; conditions: 3 weeks after application
From the text: (§1) Test in Transplanted Paddy Rice
(§2) To produce a preparation of active compound, 1 part by weight of an active compound combination according to the invention is mixed with the stated amount of solvent and, after addition of the stated amount of emulsifier, diluted with water to the desired concentration.
(§3) Vessels for planting (500 cm^2) are filled with soil from a rice field. In each case 3 rice plants (cultivar: Nipponbare, 2-3-leaf stage, height: about 15 cm) are planted into the center of the vessels for planting. Seeds of Cyperus, Echinochloa, Lindernia, Rotala and Elatine are sown into the same vessels for planting. The soil in the vessels is kept moist. After two days, each vessel for planting is flooded to a water depth of 2-3 cm.
(§4) Five days after the transplanting of the rice plants, the amount of active compound in the preparation described above is applied to the surface of the water in the vessels for planting using a pipette. The water depth in the vessels for planting is kept at 2-3 cm.
(§5) 3 weeks after the application of active compound, the efficacy is rated in % damage in comparison to the untreated control.
(§6) The figures denote • 0% no effect/damage (like untreated control) • 100% total destruction

LIDPY = experiment: as above; format: in vivo, Lindernia; conditions: 3 weeks after application
From the text: as §1, §2, §3, §4, §5, §6

ROTIN = experiment: as above; format: in vivo, Rotala; conditions: 3 weeks after application
From the text: as §1, §2, §3, §4, §5, §6

Solanum nigrum = experiment: Post-emergence greenhouse spray test; format: in vivo; conditions: about 3 weeks
Method: (§7) The required amount of active compound or formulation is dissolved in a few milliliters (2-3 ml) of the solvent (acetone or DMF), an emulsifier (1 ml) is added, if required, and the mixture is diluted with water to the desired concentration.
(§8) Mixtures are prepared by mixing a predetermined dissolved amount of the first active compound with the required amount of the second active compound (and, if desired, with additional active compounds/formulations or other ingredients), and then diluting the mixture with water to the desired concentration.
(§9) In pre- and post-emergence experiments, a surfactant (Renex 36) is usually added, at a concentration of 0.1%, to the spray solution.
(§10) The amount of active compound or formulation is chosen such that the desired application rate per ha is achieved.
(§11) Test plants are grown under controlled conditions (temperature and light). Once the plants have reached a height of 5-15 cm, the test compound or the combination of test compounds is applied by spraying such that the particular amounts of active compound desired are applied per unit area. The concentration of the spray liquor is chosen such that the desired amounts of active compound are in each case applied in 500 1 of water/ha.
(§12) After the spray application, the vessels containing the plants are stored in a greenhouse under constant conditions with respect to light and temperature.
(§13) After about 3 weeks, the degree of damage to the plants is rated in % damage in comparison to the development of the untreated control.
(§14) The figures denote: • 0%=no damage (like untreated control) • 100%=total destruction/damage • a.i.=active ingredient Flufenacet Tested as 60 WG • (I-31)/(I-34) tested as active compounds • * values calculated according to Colby

Amaranthus retroflexus = experiment: Post-emergence greenhouse spray test; format: in vivo; conditions: about 3 weeks
Method: as §7, §8, §9, §10, §11, §12, §13, §14

Chenopodium album = experiment: Post-emergence greenhouse spray test; format: in vivo; conditions: about 3 weeks
Method: as §7, §8, §9, §10, §11, §12, §13, §14

Abutilon theophrasti = experiment: Post-emergence greenhouse spray test; format: in vivo; conditions: about 3 weeks
Method: as §7, §8, §9, §10, §11, §12, §13, §14

Digitaria sanguinalis = experiment: Post-emergence greenhouse spray test; format: in vivo; conditions: about 3 weeks
Method: as §7, §8, §9, §10, §11, §12, §13, §14

ECHSS = experiment: Test in transplanted paddy rice (greenhouse), water-surface application; format: in vivo, Echinochloa; conditions: 135 g/ha, 3 weeks after application
From the text: as §1, §2, §3, §4, §5, §6

CYPDI = experiment: as above; format: in vivo, Cyperus; conditions: 135 g/ha, 3 weeks after application
From the text: as §1, §2, §3, §4, §5, §6

Structure (SMILES): Cn1nnn(CCOc2c(Cl)ccc(C(=O)C3C(=O)CCCC3=O)c2Cl)c1=O [Example I-22, 2-[2,4-dichloro-3-[2-(4-methyl-5-oxo-4,5-dihydro-1H-tetrazol-1-yl)-ethoxy]-benzoyl]-1,3-cyclohexanedione]
- efficacy in % damage, Compound (I) alone (ELTTP; 30 g/ha): 60%
- efficacy in % damage, Compound (I) alone (LIDPY; 30 g/ha): 70%
- efficacy in % damage, Compound (I) alone (ROTIN; 30 g/ha): 70%

Structure (SMILES): O=C1CC[C@@H](COc2c(Br)ccc(C(=O)C3C(=O)CCCC3=O)c2Br)N1 [Example I-31, (5S)-5-[[2,6-dibromo-3-[(2,6-dioxo-1-cyclohexyl)-carbonyl]-phenoxy]-methyl]-2-pyrrolidinone]
- Solanum nigrum observed (% damage) (Solanum nigrum; 30 g of ai/ha): 10%
- Amaranthus retroflexus observed (% damage) (Amaranthus retroflexus; 8 g of ai/ha): 0%
- Amaranthus retroflexus observed (% damage) (Amaranthus retroflexus; 15 g of ai/ha): 0%
- Amaranthus retroflexus observed (% damage) (Amaranthus retroflexus; 30 g of ai/ha): 0%
- Chenopodium album observed (% damage) (Chenopodium album; 15 g of ai/ha): 0%
- Chenopodium album observed (% damage) (Chenopodium album; 30 g of ai/ha): 20%
- Abutilon theophrasti observed (% damage) (Abutilon theophrasti; 15 g of ai/ha): 0%
- Abutilon theophrasti observed (% damage) (Abutilon theophrasti; 30 g of ai/ha): 10%

Structure (SMILES): O=C1CC[C@@H](COc2c(Cl)ccc(C(=O)C3C(=O)CCCC3=O)c2Cl)N1 [Example I-34, (5S)-5-[[2,6-dichloro-3-[(2,6-dioxo-1-cyclohexyl)-carbonyl]-phenoxy]-methyl]-2-pyrrolidinone]
- Amaranthus retroflexus observed (% damage) (Amaranthus retroflexus; 15 g of ai/ha): 0%
- Amaranthus retroflexus observed (% damage) (Amaranthus retroflexus; 30 g of ai/ha): 0%
- Chenopodium album observed (% damage) (Chenopodium album; 15 g of ai/ha): 90%
- Chenopodium album observed (% damage) (Chenopodium album; 30 g of ai/ha): 90%
- Digitaria sanguinalis observed (% damage) (Digitaria sanguinalis; 15 g of ai/ha): 0%
- Digitaria sanguinalis observed (% damage) (Digitaria sanguinalis; 30 g of ai/ha): 0%

Structure (SMILES): CC(C)N(C(=O)COc1nnc(C(F)(F)F)s1)c1ccc(F)cc1 [Flufenacet, N-(4-fluoro-phenyl)-N-i-propyl-2-(5-trifluoromethyl-1,3,4-thiadiazol-2-yl-oxy)-acetamide, reference compound]
- Solanum nigrum observed (% damage) (Solanum nigrum; 125 g of ai/ha): 30%
- Amaranthus retroflexus observed (% damage) (Amaranthus retroflexus; 125 g of ai/ha): 60%
- Chenopodium album observed (% damage) (Chenopodium album; 125 g of ai/ha): 0%
- Abutilon theophrasti observed (% damage) (Abutilon theophrasti; 125 g of ai/ha): 0%
- Digitaria sanguinalis observed (% damage) (Digitaria sanguinalis; 125 g of ai/ha): 70%

Structure (SMILES): CCN(C(=O)n1nnn(-c2ccccc2Cl)c1=O)C1CCCCC1 [fentrazamide, 4-(2-chloro-phenyl)-N-cyclohexyl-N-ethyl-4,5-dihydro-5-oxo-1H-tetrazole-1-carboxamide, reference compound]
- efficacy in % damage, Compound (II) alone (ELTTP; 135 g/ha): 60%
- efficacy in % damage, Compound (II) alone (ECHSS): 70%
- efficacy in % damage, Compound (II) alone (LIDPY; 135 g/ha): 60%
- efficacy in % damage, Compound (II) alone (ROTIN; 135 g/ha): 60%
- efficacy in % damage, Compound (II) alone (CYPDI): 60%
